{"source": "patent US20080095810A1", "about": "“Nanoparticles Of Chitosan And Polyethyleneglycol As A System For The Administration Of Biologically-Active Molecules” (Advanced In Vitro Cell Technologies, S.L., priority 2005, published 2008)", "key": {"[1]": {"tested_on": "streptozotocin diabetic male Wistar rats", "assay": "blood sugar after intranasal administration of insulin formulations in diabetic rats", "format": "in vivo", "settings": "10 U/kg insulin intranasal, compared with acetate buffer or with chitosan-PEG nanoparticles", "method": "To encapsulate insulin in the chitosan nanoparticles, 2.4 mg of insulin were previously dissolved in an NaOH solution to which 1.2 mL of TPP were later added. This mixture was later added to 3 mL of chitosan. After 5 min with magnetic stirring, the preparation was centrifuged at 10,000 g for 40 min. The supernatant was removed and the precipitate was dissolved in a buffer. For its part, the same process was carried out to prepare the chitosan-PEG nanoparticles, but adding 10 mg/mL of PEG 400 to 2 mg/mL of chitosan.\nThe rats were considered diabetic when the blood sugar concentration was greater than 400 mg/dl after three weeks of the treatment with streptozotocin.\nFasting rats were used to carry out this experiment. They were divided into different groups depending on the formulation which was to be administered to them. […]\nTo determine the blood glucose levels, blood samples were collected from the tail vein before the nasal administration and every quarter of an hour until 90 minutes were completed. […] The blood glucose level was immediately determined using a glucose analyzer (Prestige from Chronolyss). […]"}, "diabetic rats": {"tested_on": "diabetic rats", "assay": "glycemic response to an oral glucose administration after intranasal insulin formulations", "format": "in vivo", "settings": "10 U/kg insulin intranasal, compared with acetate buffer", "method": "Diabetic rats which had fasted overnight were used to carry out this experiment. Each of the preparations described in Example 7 was nasally administered to them. After one hour, each group of rats received an oral glucose administration of 2 g per each kg of body mass. The blood sugar was measured in blood from samples collected from the tail vein before the glucose administration and after 10, 20, 30, 60, 90 and 120 minutes."}}, "data": [{"substance": "insulin", "values": [{"measurement": "effect on blood sugar (in words)", "setting": "[1]", "result": "did not significantly change the previous result"}, {"measurement": "effect on glycemic response to oral glucose (in words)", "setting": "diabetic rats", "result": "did not significantly change this result"}]}]}
